From patent publication US20240075140A1, “ENGINEERED NK CELLS AND METHODS OF TREATING CANCER” (American Gene Technologies Intemational Inc, priority 2021, published 2024)

System: Daudi cells
Assay: CD107a response of Mitomycin C treated S76 to Daudi cells
Assay type: cell-based
Settings: various concentrations, 1 or 2 hours; Daudi 2:1, 4 hours
Experimental: Cloned S76 cells were treated with MMC at various concentration for 1 or 2 hours. After MMC treatment, S76 was mixed with Daudi cells at a 2:1 ratio for 4 hours. CD107a was measured by flow cytometry. For detecting CD107a, cells were washed, resuspended in 50-100 μl of staining buffer, and stained with mouse anti-human Vδ2-PE clone B6 and mouse anti-human CD107a-APC clone H4A3. Cells were washed with staining buffer and resuspended. Data for at least 1×10^4 lymphocytes (gated on the basis of forward- and side-scatter profiles) were acquired from each sample on a FACSCalibur flow cytometer (BD Biosciences). All samples were analyzed using FlowJo software.

`CO[C@@]12[C@H](COC(N)=O)C3=C(C(=O)C(C)=C(N)C3=O)N1C[C@@H]1N[C@@H]12` [MMC, Mitomycin C] was tested. Which “effect of Mitomycin C treatment on function of clone S76 (CD107a response to Daudi)” value did it give?
Its value is “did not significantly impair the function”.
